In a melting point compilation (Tetko et al.; mined from patent text by program, amines drawn as free bases though some values may be those of a salt):
Counter-ions that a name gives are not always drawn. Residues, ends and D or L forms follow the SMILES beside them. *: point of attachment. Tfa = O=C(C(F)(F)F)*

melting point | Compound
148 °C | O=S(=O)(N[C@H]1CC[C@H](CCN2CCN(c3nccc4c3OCC4)CC2)CC1)c1ccc(F)cc1
250 to 251 °C | CC1CNc2ccc(NC3=NCCN3)c(Br)c2N1 (stereo not given)
174 to 177 °C | Cc1ccc(S(=O)(=O)OCCOc2ccc3[nH]nc(S(=O)(=O)c4ccccc4)c3c2)cc1
122 to 124 °C | c1ccc(CSc2nc3nc(-c4ccccc4)cc(-c4ccccc4)n3n2)cc1
124 to 126 °C | CC(C)(C)OC(=O)Nc1ccncc1N
220 to 224 °C | O=P(O)(c1ccccc1)c1ccc(S(=O)(=O)c2ccccc2)cc1
244 °C | CCOC(=O)c1ccc(NC(=O)NC2CN(C(=O)c3cccs3)c3ccc(C)cc3N(CC(=O)c3cccs3)C2=O)cc1 (stereo not given)
90 °C | CCOC(=O)C(Br)C(=O)Nc1ccccc1 (racemic)
175 to 176 °C | N=C(Nc1ccc(Cl)cc1)Nc1ncccc1Cc1ccccc1F
159 to 161 °C | COC1C(OC(=O)c2ccc(N)cc2)C=C(C)C(=O)CC1(C)C (stereo not given)
112 to 114 °C | CCCn1c(=O)n(-c2ccc3c(c2)OCO3)c2ncccc21
330 to 331 °C | CCCCOc1ccc(-c2ccc(-c3ccc(-c4ccc(-c5ccc(OCCCC)cc5)s4)c4nsnc34)s2)cc1
116 to 117 °C | O=C(NCCC(F)=C(F)F)N(c1ccccc1)c1ccccc1
235 to 240 °C | CCOC(=O)c1ccc(-c2nc3cc4c(cc3[nH]2)NC(=O)C4(C)C)c(OC)c1
73 to 74 °C | COc1cccc(C2CCCCN(C)C2=O)c1 (stereo not given)
65 to 67 °C | O=C(NCCSCc1ccccc1)c1ccccc1
130 to 133 °C | CN(C)C=CC(=O)c1ccc(OCC(O)CN2CCN(c3cccc(Cl)c3)CC2)cc1 (stereo not given)
78 to 79 °C | CCCCCCCCCCCCCCCCCCN1C(=O)c2ccccc2C1=O
141 to 143 °C | Nc1ccc(F)c(-c2cncnc2)c1F
141 °C | CCOC(=O)C(=O)Cc1ncc([N+](=O)[O-])n1C
94 to 97 °C | CCCCn1c(C)c(C)cc(N)c1=O
180 to 182 °C | COc1ccc(C)c(Nc2c(C#N)cnc3cc(Cl)c([N+](=O)[O-])cc23)c1
36 to 38 °C | CCCCCCCCCCCCc1ccc2nc3c(c(Cl)c2c1)CCCC3
117 to 118 °C | CC(=O)c1sc(-c2ccncc2)c(C)c1-c1ccncc1

melting point | Compound
278 to 280 °C | CN(C)CCCc1cc(C(=O)Nc2ccc(-c3ccc(C(=O)O)cc3)cc2)ccc1O
99 to 103 °C | COC(=O)COc1nc(Cl)c(Cl)cc1Cl
156 to 160 °C | CN1CCN(c2cccc3ccc(NC(=O)c4ccc(O)cc4)cc23)CC1
197 to 199 °C | CC(C)Cn1c(CCCCNC(=O)Nc2ccccc2)nc2c(N)nc3c(c21)CCCC3
186 to 189 °C | CNCCn1nc2c3c(c(NCCNCCO)ccc31)C(=O)c1c(OCc3ccccc3)ccc(OCc3ccccc3)c1-2
84.5 to 86.5 °C | Cc1noc2ccc([N+](=O)[O-])cc12
202 to 205 °C | CC(=O)Nc1nc2c(c(=O)[nH]1)CCC(O)N2C(C)=O (stereo not given)
> 280 °C | CC(=O)N(Cc1cc(Br)cc2[nH]c(=O)c(=O)[nH]c12)CP(=O)(O)O
121 °C | CN(CCNC(=O)c1ccccc1)C(=O)c1ccccc1
206 to 209 °C | CC(C)c1noc(C2CCN(c3ccc4oc(-c5ccc(S(C)(=O)=O)cc5F)nc4c3)CC2)n1
248 to 249 °C | Cc1cc(C#N)c(S(C)(=O)=O)cc1C(=O)O
226 to 227 °C | COc1cc(Cl)nnc1NS(=O)(=O)c1cccc(Cl)c1Cl
207 to 208 °C | COC(=O)c1ccc(Cn2c(C)nc3ccccc32)c2ccccc12
144 to 145 °C | CCN1C(=O)Cc2cc3c(cc21)C(O)CO3 (stereo not given)
199 to 202 °C | N#CSc1nc(I)ncc1Br
> 300 °C | COCCn1cc2c(C3C(=O)Nc4ccc(Br)cc43)nc(NCCN3CCOCC3)nc2n1 (stereo not given)
147 to 150 °C | N#Cc1c(Cl)c(Cl)c(Oc2ccccc2)c(Cl)c1C#N
161 to 162 °C | COc1cccc(NC(=O)NC(C(C)C)C2CCN(Cc3ccc(Cl)c(Cl)c3)CC2)c1 (racemic)
241 °C | Cn1cnc(COc2nn3c(-c4ccccc4)nnc3cc2-c2ccoc2)n1
60 °C | O=C(CCNC(=O)C(=Cc1ccccc1)CSC(=O)c1ccccc1)OCc1ccccc1
220 °C | O=C(O)C1CSC(C2CC3C=CC2C3)N1 (mixture of isomers)
161 to 162 °C | CCc1cc(Nc2cc(Cl)c(C(F)(F)F)cc2[N+](=O)[O-])c(OC)cc1OC
170 to 171 °C | COc1cc(C2COc3c(C)c(C)c(NC(=O)CC(C)(C)C)c(C)c32)ccc1C(C)C (stereo not given)
112 to 113 °C | Cc1c(N)c2c(c3c1C(c1ccc(C(C)C)cc1)CO3)CCC2 (stereo not given)

melting point | Compound
109 to 111 °C | c1ccc(COc2ccc(-c3nc4cccc(OCc5ccccc5)c4[nH]3)cc2C23CC4CC(CC(C4)C2)C3)cc1
252 to 254 °C | COc1ccc(S(=O)(=O)c2ccc(NC(=O)NC34CC5CC(CC(C5)C3)C4)cc2)nn1
179 to 180 °C | Cc1cn(C2CC(O)C(CNCc3ccc(Cl)cc3)O2)c(=O)[nH]c1=O (stereo not given)
106 to 107 °C | c1ccc2c3c([nH]c2c1)CCCSCC3
180 to 183 °C | CC(=O)N1CCN(CCN2C=Cc3cc(S(N)(=O)=O)sc3S2(=O)=O)CC1
210 to 212 °C | O=C(O)c1cc(-n2c(-c3ccccc3)cc3ccccc32)ccc1O
85 to 86 °C | CCOC(=O)Cc1c(C)n(Cc2cccc(OC)c2)c2ccc(OCc3csc(-c4ccccc4)n3)cc12
235 to 242 °C | Cc1cccc(C)c1N1CCN(CCNc2cnn(C)c(=O)c2Cl)CC1
228 to 230 °C | CCN(CC)Cc1ccc2[nH]c(-c3ccccc3)cc(=O)c2c1
124 to 126 °C | COc1ccc(-c2ccc(C#CC(=O)O)s2)cc1C(C)(C)C
131 °C | c1cncc(N=C2SCC3Cc4ccccc4N23)c1 (racemic)
270 °C | COc1ccc(Cc2nc(S)[nH]c2Cc2ccc(OC)cc2)cc1
60 to 61 °C | CC(=O)c1c(-c2ccncc2)sc(Cl)c1C
141 to 142 °C | CCS(=O)(=O)c1cnc(Cl)c(Cl)c1
98 °C | COc1ccc(Nc2nc(Cl)nc(OCC3CCCCC3)n2)cc1F
221 to 224 °C | O=C(O)Cc1c(C(=O)c2ccc(Cl)cc2)[nH]c2ccccc12
77 to 79 °C | COCOc1ccc2c(c1)OC(C)(C)CC2=O
138 to 140 °C | CCOC(=O)NCC(C)C(NC(=O)OCC)NC(=O)OCC (stereo not given)
79 °C | CCCCCCCNC(=O)N(C)c1cccc(-c2ccc(C=C(C)C(=O)O)cc2)c1
189 to 191 °C | Cn1cc(C(=O)NCc2ccc(Cl)cc2)c(=O)c2cc(CN3CCOCC3)cc(C#CCF)c21
102 to 103 °C | COc1cc(OC)c2c(-c3cc(F)cc(F)c3)coc2c1
196 to 198 °C | CC(C)(C)OC(=O)N1CCCC(C(=O)N2CCC(c3[nH]nc4c3C(=O)c3c(NC(=O)NN5CCOCC5)cccc3-4)CC2)C1 (stereo not given)
161 to 162 °C | O=C(O)CCc1cn(Cc2ccc(OCc3cncc(-c4ccccc4)c3)cc2)nc1-c1ccccc1
212 to 213 °C | CCn1nc(C)c2c(O)c(C(=O)O)cnc21

melting point | Compound
34 to 36 °C | Cc1nc(-c2ccc(N)c(Br)c2)c[nH]1
105 to 107 °C | COc1ccc(CC(=O)c2ccc(OC)c(OC)c2)cc1OC
240 to 244 °C | CS(=O)(=O)OC1CN(c2c(F)cc3c(=O)c(C(=O)O)cn(C4CC4)c3c2F)C1
310 to 313 °C | N=C(N)c1ccc(-n2ncn(-c3ccc(CCC(=O)O)cc3)c2=O)cc1
150 to 151 °C | COC(=O)C(Cc1ccccc1)NC(=O)C(CC(=O)O)NC(=O)C(F)(F)F (stereo not drawn) (Tfa-Asp-Phe-OMe; configuration not given here)
77 °C | O=C(c1ccccc1)c1ccc(N2CCCCC2)c([N+](=O)[O-])c1
171 to 173 °C | Cc1cnc2sc(S(=O)(=O)Cc3ccccc3)nn2c1=O
286 to 290 °C | Cn1c(=O)c(-c2c(Cl)cccc2Cl)cc2cnc(Nc3ccc(CC(=O)O)cc3)nc21
67 to 69 °C | CCOc1c(CS(=O)(=O)C2=NOC(C)(CCl)C2)c(C(F)(F)F)nn1CC (stereo not given)
74 to 75 °C | CCOC(=O)Cc1ccc(OCc2ccc3oc([N+](=O)[O-])c(-c4ccccc4)c3c2)cc1
185 to 190 °C | CN(C)C(=O)c1c(S(N)(=O)=O)ccn1C
212 to 214 °C | Cc1cc(C)c(NC(=O)N(Cc2ccccc2)CC2(c3ccccc3)CCCC2)c(C)c1
116 to 118 °C | CCOC(=O)CC1NC(=O)c2ccccc21 (stereo not given)
144 to 145 °C | CC(=O)Nc1nc(-c2ccc(SCOC(C)=O)cc2)cs1
183 to 186 °C | COCCc1nc2c(N)nc3ccccc3c2n1CCCNC(=O)c1ccccc1
160 to 162 °C | CN1C(=O)C(=O)c2cc(I)ccc21
221 °C | O=C(c1ccccc1O)N1CCc2cc(S(=O)(=O)N3CC(c4ccccc4)NC3=O)ccc21 (stereo not given)
98 to 99 °C | CC(C)S(=O)(=O)c1snc(OC[Si](C)(C)C)c1C#N
291 to 293 °C | O=C1CN(Cc2ccccc2)CC2=C1N=C1N=C(N3CCOCC3)NN1C2
129 to 130 °C | O=C1NCCN1Cc1ccc(Cl)c(Cl)c1
136 to 138 °C | CCCOCCOc1ccccc1COc1ccc2c(c1)C=C(C(=O)Nc1ccc(CN(C)C3CCOCC3)cc1)CCS2(=O)=O
135 to 136 °C | COc1ccc(O)c(NS(C)(=O)=O)c1
238 to 240 °C | CC1CCc2c(N3CCC(O)CC3)ccc3c(=O)c(C(=O)O)cn1c23 (stereo not given)
139 to 141 °C | CCOC(=O)C(=CNc1coc2cc(OC)ccc2c1=O)C(=O)OCC

Compound | melting point
CC(=O)OC1=CCC2C3CCC4CCC(OC(C)=O)CC4(C)C3CCC12C (stereo not given) | 133 to 134 °C
CC12CC(=O)C3C(CCC4CC(O)CCC43C)C1CCC2C(=O)CCOC(=O)CCl (stereo not given) | 95 to 97 °C
N#CC1CN1Cc1ccc(C(=O)O)s1 (stereo not given) | 108 to 111 °C
CN(C)C1(Cc2ccccc2)CCC(c2[nH]c3ccccc3c2Cc2ccccc2)CC1 (stereo not given) | 140 to 143 °C
